Assay results as given in a melting point compilation (Tetko et al.; mined from patent text by program, amines drawn as free bases though some values may be those of a salt).

Compound | melting point [°C]
N#Cc1ccccc1Sc1ccccc1N | 86 to 89
O=C1CSCc2nc(-c3ccccc3)ccc21 | 78 to 81
COc1c(O)ccc(C=O)c1[N+](=O)[O-] | 136 to 137
CCN1C(=O)N=NC1c1cccc(F)c1 (centres undefined) | 135 to 140
Cc1nn(-c2ccccn2)c2[nH]c3ccc(N)cc3c(=O)c12 | 260 to 262
CNC(=O)C(Cc1ccc(OC)cc1)NC(=O)C(CC(C)C)C(CC(=O)NCC(=O)O)SC(C)=O (centres undefined) | 188 to 192
N#Cc1cccc(Oc2ncccc2OCCCc2ccncc2O)c1 | 84 to 86
c1ccc(CN2CC3OC(c4ccccc4)(C2)c2ccccc23)cc1 (centres undefined) | 100 to 101
CCOC(=O)c1ccc(-c2nc3cc4c(cc3[nH]2)NC(=O)C4(C)C)c(OC)c1 | 235 to 240
CCC(=O)N1CCC(NC(=O)Nc2ccc([N+](=O)[O-])cc2)CC1 | 240 to 241
CCCc1nc(CO)c[nH]1 | 95 to 101
CC(C)(C)c1ccc(CCOc2ncnc3nccnc23)cc1 | 149
OC1CCC(n2cnc3cc(Cl)c(Cl)cc32)C1O (centres undefined) | 180 to 182
Cc1ccc(-c2c(C#N)cnc3ccccc23)cc1 | 96 to 97
CC(COc1ccc(CC2SC(=O)NC2=O)cc1)C1CC(COc2ccccc2)OC1=S (centres undefined) | 53 to 58
Clc1ccccc1-c1cnc(-c2ccccc2Cl)nc1 | 112
O=c1nc(-c2c(-c3ccccc3)nn3ccccc23)cc[nH]1 | 287 to 289
COC(=O)CCCCCNC(=O)c1csc(NC(=O)NCc2ccccc2)n1 | 140
O=C(NCC(S)CO)OCc1ccc([N+](=O)[O-])cc1 (centres undefined) | 65 to 67
CN1CCN(C(=O)c2ccc(-c3cnc4c(c3)N(Cc3cc(F)c(F)cc3F)C(=O)CN4)cc2)CC1 | 238
CCCNC(=O)C(O)C1c2ccccc2C(=O)N1c1ccc2ccc(C)nc2n1 (centres undefined) | 128 to 130
CCOC(=O)CNC(=O)CCCCCNC(=O)c1ccc(S(C)(=O)=O)cc1 | 124 to 126
CC(C)(C)OC(=O)NC(Cc1ccccc1)C(=O)NC(Cc1ccc(C(F)(F)F)cc1)C(O)c1ccc(F)cc1 (mixture of isomers) | 230 to 231
CCCC(=O)N[C@@H]1CCc2cccc(N3CCN(C)CC3)c2C1 | 131 to 132
O=C1Nc2cc(Cl)ccc2Nc2cscc21 | 212 to 213

Compound | melting point [°C]
O=C(c1cccnc1)C(O)c1ccccc1Cl (centres undefined) | 92
CC1(C)CC(=O)c2c(SCCO)sc(-c3ccccn3)c2C1 | 175 to 177
CC(=O)NCc1ccc(C(C)(C)C(=O)O)cc1 | 166 to 169
O=C(Nc1ccccc1)N1C(=O)[C@H](O)[C@@H]1c1ccccc1 | 197 to 200
CCOC(=O)CNC(=O)C1=C(C(=O)Nc2ccc(Cl)cc2F)CCCC1 | 170
O=C(NCC1CC1)c1c(NC(=O)c2cc(C(F)(F)F)nn2-c2ncccc2Cl)c(Br)cc2cn[nH]c12 | 144 to 150
Sc1nc2ccc(Cl)cc2c2nc(-c3ccc(Br)o3)nn12 | 273 to 276
C#CCSc1cc(-c2nn(C)c(SC)c2Cl)c(F)cc1Cl | 93 to 96
CCOCc1nc2c(N)nc3cccnc3c2n1CCCCCC(N)=O | 215 to 217
COc1nc(C)c(N2CCCn3c2nc2c(C#N)ccc(C(OC(F)F)C(F)(F)F)c23)c(C)n1 (centres undefined) | 250 to 252
CCOC(=O)c1cnc(O)nc1-c1ccccc1 | > 260
CCCc1nc2c(N)nc3ccccc3c2n1CC1(O)CCS(=O)(=O)CC1 | > 250
Cc1cc(-n2ccc(OCc3ccc(OC(F)F)cc3)cc2=O)sc1C(=O)NCc1ccccc1 | 178 to 180
Cc1nc2cc(-c3ccccc3)nn2c2c1CCN2C(C)(C)C | 244 to 248
CN1C(=O)CN=C(c2ccc(O)cc2)c2cc(Cl)ccc21 | 225 to 259
COC(=O)c1cc(OC)cc(-c2ccc(NC(C)=O)cc2)n1 | 223 to 224
CC(C)(C)c1cc(N2CCCCC2=O)cc(C(C)(C)C)c1O | 212 to 214
c1ccc2c(c1)-c1cccc3c(NCCCCNc4nccc5ccccc45)nnc-2c13 | 95 to 105
CCCCC1N=CC(C=O)(Cc2ccc(C(=O)OC)c3ccccc23)N1 (centres undefined) | 95.5 to 97
CC(C)(C)NS(=O)(=O)c1cccc(NC(=O)c2cnn3c(C(F)(F)F)cc(-c4ccc(C(F)(F)F)cc4)nc23)c1 | 232
CCCC(SCC(N)=O)c1ccc2c(c1)OCO2 (centres undefined) | 91 to 92
CCOC(=O)C(=CNc1ccnc(-c2ccncc2)n1)C(=O)OCC | 143 to 145
CN(NC(=O)OC(C)(C)C)C(=O)OCc1ccccc1 | 60 to 65
O=C(N[C@H]1CC[C@H](CCN2CCC(c3cccc4c3CCO4)CC2)CC1)c1ccc(-c2cccnc2)cc1 | 224
